Here are results for 69 molecules from patent US8653087B2, “Pyrido [5, 4-D] pyrimidines as cell proliferation inhibitors” (Boehringer Ingelheim International GmbH, priority 2008, dated 2014).

For the test, the target named is B-Raf (V600E)-kinase (Homo sapiens (Human), UniProt P15056, V600E). Kind of test: Kinase test B-RAF (V600E). It is filed as biochemical. The note with it: B-RAF (V600E) kinase test, 250 μM ATP. The method in brief: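 Read-out is DELFIA europium TRF of phospho-MEK (Ser217/221) on biotinylated MEK1 bound to streptavidin plates, IC50 from dose-response. Reaction ran 60 min at RT with 250 μM ATP, after a 24 h RT preincubation of compound with B-Raf (V600E) kinase, 5% DMSO final.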
Chain of B-Raf (V600E)-kinase (P15056 whole entry V600E): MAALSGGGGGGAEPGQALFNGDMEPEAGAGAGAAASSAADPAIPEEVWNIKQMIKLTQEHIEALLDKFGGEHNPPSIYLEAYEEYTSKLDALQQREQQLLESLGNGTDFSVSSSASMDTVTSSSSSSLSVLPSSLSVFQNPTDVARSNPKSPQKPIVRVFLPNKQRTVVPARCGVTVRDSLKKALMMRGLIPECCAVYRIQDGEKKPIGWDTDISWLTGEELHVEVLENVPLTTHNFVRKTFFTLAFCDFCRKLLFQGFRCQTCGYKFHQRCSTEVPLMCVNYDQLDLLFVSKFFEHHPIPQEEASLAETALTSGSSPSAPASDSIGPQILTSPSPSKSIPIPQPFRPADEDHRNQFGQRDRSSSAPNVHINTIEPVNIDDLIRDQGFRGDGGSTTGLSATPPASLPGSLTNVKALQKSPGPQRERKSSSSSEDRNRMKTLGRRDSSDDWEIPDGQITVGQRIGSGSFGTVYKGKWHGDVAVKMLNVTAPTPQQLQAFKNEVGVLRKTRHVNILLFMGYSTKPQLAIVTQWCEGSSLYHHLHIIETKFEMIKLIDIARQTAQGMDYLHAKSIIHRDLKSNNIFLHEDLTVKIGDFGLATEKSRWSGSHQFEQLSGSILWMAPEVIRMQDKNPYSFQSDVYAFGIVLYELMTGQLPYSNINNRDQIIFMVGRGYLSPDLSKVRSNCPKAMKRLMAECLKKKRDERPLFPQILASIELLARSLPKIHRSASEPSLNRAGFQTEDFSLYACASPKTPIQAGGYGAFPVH

`Cc1ccc(C(=O)NC2CCCCC2)cc1Nc1ncnc2cnc(N3CCN(C)CC3)nc12` [III-189]: the half-inhibitory concentration (IC50) – broadly, the concentration at which inhibition is half-maximal – was over 15000 nM. For `Cc1ccc(C(=O)Nc2ccccc2)cc1Nc1ncnc2cnc(N3CCN(C)CC3)nc12` [III-190] the value was 1540 nM.

`Cc1ccc(C(=O)NC2CC2)cc1Nc1ncnc2cnc(N3CCN(C)CC3)nc12` [III-191] yielded an IC50 of over 15000 nM. To `Cc1ccc(C(=O)NCC2CCOC2)cc1Nc1ncnc2cnc(N3CCOCC3)nc12` (stereo not drawn) [III-193] belongs over 15000 nM. On to `Cc1ccc(C(=O)NC2CC2)cc1Nc1ncnc2cnc(N3CCOCC3)nc12` [III-194], for which the IC50 was over 2000 nM. In turn, `Cc1ccc(C(=O)Nc2cccc(S(=O)(=O)N(C)C)c2)cc1Nc1ncnc2cnc(N(C)CCN(C)C)nc12` [III-195] displayed an IC50 of 59 nM. This counts as double-digit nanomolar. For `Cc1ccc(C(=O)Nc2ccc3c(c2)C(C)(C)C(=O)N3CCN2CCCC2)cc1Nc1ncnc2cnc(N(C)CCN(C)C)nc12` [III-196] the value was 16 nM. For the molecule `Cc1ccc(C(=O)NCC2CCOC2)cc1Nc1ncnc2cnc(N(C)CCN(C)C)nc12` (stereo not drawn) [III-197], the IC50 was over 15000 nM.

On to `Cc1ccc(C(=O)Nc2cccc(C(C)(C)C#N)c2)cc1Nc1ncnc2cnc(N(C)CCN(C)C)nc12` [III-198], for which 11 nM corresponded to half-maximal inhibition (IC50). `COc1c(NC(=O)c2ccc(C)c(Nc3ncnc4cnc(N(C)CCN(C)C)nc34)c2)cc(C(C)(C)C)cc1NS(C)(=O)=O` [III-199] yielded an IC50 of 23 nM. `Cc1ccc(C(=O)NCc2cccc(C(F)(F)F)c2)cc1Nc1ncnc2cnc(N(C)CCN(C)C)nc12` [III-200] displayed an IC50 of 971 nM. In the case of `Cc1ccc(C(=O)NC2CCCCC2)cc1Nc1ncnc2cnc(N(C)CCN(C)C)nc12` [III-201], the half-inhibitory concentration (IC50) was over 10000 nM.

`Cc1ccc(C(=O)Nc2ccccc2)cc1Nc1ncnc2cnc(N(C)CCN(C)C)nc12` [III-202] displayed an IC50 of over 2000 nM.

For `Cc1ccc(C(=O)NC2CC2)cc1Nc1ncnc2cnc(N(C)CCN(C)C)nc12` [III-203], the IC50 is over 10000 nM. To `Cc1ccc(C(=O)NCC2CCOC2)cc1Nc1ncnc2cnc(N3CC[C@@H](F)C3)nc12` (stereo partly drawn) [III-205] belongs over 2000 nM; to `Cc1ccc(C(=O)Nc2cccc(C(C)(C)C#N)c2)cc1Nc1ncnc2cnc(N3CC[C@@H](F)C3)nc12` [III-206], 2 nM.

Molecule `Cc1ccc(C(=O)NCc2cccc(C(F)(F)F)c2)cc1Nc1ncnc2cnc(N3CC[C@@H](F)C3)nc12` [III-207] came in with an IC50 of 11 nM. `Cc1ccc(C(=O)NC2CCCCC2)cc1Nc1ncnc2cnc(N3CC[C@@H](F)C3)nc12` [III-208]: the IC50 was over 2000 nM. In the case of `Cc1ccc(C(=O)Nc2ccccc2)cc1Nc1ncnc2cnc(N3CC[C@@H](F)C3)nc12` [III-209], the IC50 was determined as 162 nM. For `Cc1ccc(C(=O)NC2CC2)cc1Nc1ncnc2cnc(N3CC[C@@H](F)C3)nc12` [III-210] the value was over 2000 nM; for `Cc1ccc(C(=O)NCC2CCOC2)cc1Nc1ncnc2cnc(N3CCCCC3)nc12` (stereo not drawn) [III-212], over 15000 nM. Regarding `Cc1ccc(C(=O)Nc2cccc(C(C)(C)C#N)c2)cc1Nc1ncnc2cnc(N3CCCCC3)nc12` [III-213], the concentration for half-maximal inhibition (IC50) stood at 3 nM. Molecule `Cc1ccc(C(=O)NCc2cccc(C(F)(F)F)c2)cc1Nc1ncnc2cnc(N3CCCCC3)nc12` [III-214] yielded an IC50 of 56 nM. On to `Cc1ccc(C(=O)NC2CCCCC2)cc1Nc1ncnc2cnc(N3CCCCC3)nc12` [III-215], for which the IC50 was over 10000 nM. For the molecule `Cc1ccc(C(=O)Nc2ccc(F)c(C(F)(F)F)c2)cc1Nc1ncnc2cnc(N3CCCN(C)CC3)nc12` [III-216], the IC50 was found to be 3 nM.

As for `Cc1ccc(C(=O)Nc2cccc(C(F)(F)F)c2)cc1Nc1ncnc2cnc(N3CCCN(C)CC3)nc12` [III-217], the half-maximal inhibitory concentration (IC50) came out at 2 nM. To `Cc1ccc(C(=O)NCc2ccc(C(C)(C)C)cc2)cc1Nc1ncnc2cnc(N3CCCN(C)CC3)nc12` [III-218] belongs 293 nM. For `COc1ccc(C(F)(F)F)cc1NC(=O)c1ccc(C)c(Nc2ncnc3cnc(N4CCCN(C)CC4)nc23)c1` [III-219] the value was 8 nM; for `Cc1ccc(C(=O)Nc2ccc(Cl)c(C(F)(F)F)c2)cc1Nc1ncnc2cnc(N3CCCN(C)CC3)nc12` [III-220], 5 nM; for `Cc1ccc(C(=O)NCc2ccc(C(F)(F)F)cc2)cc1Nc1ncnc2cnc(N3CCCN(C)CC3)nc12` [III-221], 171 nM. `Cc1ccc(C(=O)Nc2cccc(OC(F)(F)F)c2)cc1Nc1ncnc2cnc(N3CCCN(C)CC3)nc12` [III-222] returned an IC50 of under 1 nM.

For `Cc1ccc(C(=O)Nc2cccc(C(C)(C)C)c2)cc1Nc1ncnc2cnc(N3CCCN(C)CC3)nc12` [III-224], the IC50 is under 1 nM. `COc1ccc(C(C)(C)C)cc1NC(=O)c1ccc(C)c(Nc2ncnc3cnc(N4CCCN(C)CC4)nc23)c1` [III-225] came in with an IC50 of 2 nM. For the molecule `Cc1ccc(C(=O)NCc2ccc(C(C)(C)C)cc2)cc1Nc1ncnc2cnc(N3CCN(C)CC3)nc12` [III-226], the IC50 turned out to be 101 nM.

In turn, `Cc1ccc(C(=O)NCc2ccc(C(F)(F)F)cc2)cc1Nc1ncnc2cnc(N3CCN(C)CC3)nc12` [III-227] had an IC50 of 41 nM.

For the molecule `Cc1ccc(C(=O)Nc2cccc(C(C)(C)C)c2)cc1Nc1ncnc2cnc(N3CCN(C)CC3)nc12` [III-229], the IC50 amounted to 1 nM. This IC50 is about 41-fold lower than that of the molecule before. Regarding `COc1ccc(C(C)(C)C)cc1NC(=O)c1ccc(C)c(Nc2ncnc3cnc(N4CCN(C)CC4)nc23)c1` [III-230], the IC50 came out at 6 nM. In turn, `Cc1ccc(C(=O)Nc2ccc(F)c(C(F)(F)F)c2)cc1Nc1ncnc2cnc(N(C)CCN(C)C)nc12` [III-231] yielded an IC50 of 29 nM. Take `Cc1ccc(C(=O)Nc2cccc(C(F)(F)F)c2)cc1Nc1ncnc2cnc(N(C)CCN(C)C)nc12` [III-232]: the IC50 was 4 nM. On to `Cc1ccc(C(=O)NCc2ccc(C(C)(C)C)cc2)cc1Nc1ncnc2cnc(N(C)CCN(C)C)nc12` [III-233], for which it took 571 nM to reach half-maximal inhibition (IC50). The molecule `COc1ccc(C(F)(F)F)cc1NC(=O)c1ccc(C)c(Nc2ncnc3cnc(N(C)CCN(C)C)nc23)c1` [III-234] showed an IC50 of 15 nM. For `Cc1ccc(C(=O)Nc2ccc(Cl)c(C(F)(F)F)c2)cc1Nc1ncnc2cnc(N(C)CCN(C)C)nc12` [III-235] the value was 2 nM; for `Cc1ccc(C(=O)NCc2ccc(C(F)(F)F)cc2)cc1Nc1ncnc2cnc(N(C)CCN(C)C)nc12` [III-236], 1120 nM; for `Cc1ccc(C(=O)Nc2cccc(OC(F)(F)F)c2)cc1Nc1ncnc2cnc(N(C)CCN(C)C)nc12` [III-237], 2 nM. To `Cc1ccc(C(=O)Nc2cccc(N(C)C)c2)cc1Nc1ncnc2cnc(N(C)CCN(C)C)nc12` [III-238] belongs 87 nM. To `Cc1ccc(C(=O)Nc2cccc(C(C)(C)C)c2)cc1Nc1ncnc2cnc(N(C)CCN(C)C)nc12` [III-239] belongs 6 nM. For `COc1ccc(C(C)(C)C)cc1NC(=O)c1ccc(C)c(Nc2ncnc3cnc(N(C)CCN(C)C)nc23)c1` [III-240], 4 nM corresponded to half-maximal inhibition (IC50). Turning to `Cc1ccc(C(=O)NCc2ccc(C(C)(C)C)cc2)cc1Nc1ncnc2cnc(N3CC[C@@H](F)C3)nc12` [III-241], the IC50 turned out to be 48 nM. Consider `Cc1ccc(C(=O)NCc2ccc(C(F)(F)F)cc2)cc1Nc1ncnc2cnc(N3CC[C@@H](F)C3)nc12` [III-242], for which it took 19 nM to reach half-maximal inhibition (IC50). With `Cc1ccc(C(=O)Nc2cccc(N(C)C)c2)cc1Nc1ncnc2cnc(N3CC[C@@H](F)C3)nc12` [III-243], the IC50 was under 1 nM. The molecule `Cc1ccc(C(=O)Nc2cccc(C(C)(C)C)c2)cc1Nc1ncnc2cnc(N3CC[C@@H](F)C3)nc12` [III-244] gave an IC50 of under 1 nM.

Regarding `Cc1ccc(C(=O)NCc2ccc(C(C)(C)C)cc2)cc1Nc1ncnc2cnc(N3CCCCC3)nc12` [III-245], the 50% inhibitory concentration (IC50) was determined as 460 nM. That is a sub-micromolar value. `Cc1ccc(C(=O)NCc2ccc(C(F)(F)F)cc2)cc1Nc1ncnc2cnc(N3CCCCC3)nc12` [III-246] showed an IC50 of 29 nM. For `Cc1ccc(C(=O)Nc2cccc(N(C)C)c2)cc1Nc1ncnc2cnc(N3CCCCC3)nc12` [III-247] the value was 1 nM; for `Cc1ccc(C(=O)Nc2cccc(C(C)(C)C)c2)cc1Nc1ncnc2cnc(N3CCCCC3)nc12` [III-248], 2 nM; for `COc1ccc(C(C)(C)C)cc1NC(=O)c1ccc(C)c(Nc2ncnc3cnc(N4CCCCC4)nc23)c1` [III-249], 10 nM. Turning to `Cc1ccc(C(=O)NCc2ccc(C(F)(F)F)cc2)cc1Nc1ncnc2cnc(N3CCCC3)nc12` [III-250], the IC50 was found to be 40 nM. To `Cc1ccc(C(=O)Nc2cccc(S(=O)(=O)N(C)C)c2)cc1Nc1ncnc2cnc(N3CCCN(C)CC3)nc12` [III-251] belongs 19 nM; to `Cc1ccc(C(=O)Nc2ccc3c(c2)C(C)(C)C(=O)N3CCN2CCCC2)cc1Nc1ncnc2cnc(N3CCCN(C)CC3)nc12` [III-252], 8 nM; to `Cc1ccc(C(=O)Nc2ccccc2)cc1Nc1ncnc2cnc(N3CCCCC3)nc12` [III-253], 269 nM.

`Cc1ccc(C(=O)NC2CC2)cc1Nc1ncnc2cnc(N3CCCCC3)nc12` [III-254] came in with an IC50 of 2000 nM. Against the preceding molecule, the IC50 is about 7.4-fold higher. Turning to `Cc1ccc(C(=O)NCC2CCOC2)cc1Nc1ncnc2cnc(N3CCCC3)nc12` (stereo not drawn) [III-256], the IC50 is 15000 nM. This IC50 is about 7.5-fold higher than that of the molecule before. In turn, `Cc1ccc(C(=O)NCc2cccc(C(F)(F)F)c2)cc1Nc1ncnc2cnc(N3CCCC3)nc12` [III-257] had an IC50 of 61 nM. With `Cc1ccc(C(=O)NC2CCCCC2)cc1Nc1ncnc2cnc(N3CCCC3)nc12` [III-258], the IC50 is 15000 nM. Against the preceding molecule, the IC50 is about 250-fold higher.

`Cc1ccc(C(=O)Nc2ccccc2)cc1Nc1ncnc2cnc(N3CCCC3)nc12` [III-259] registered an IC50 of 505 nM.

As to `Cc1ccc(C(=O)NC2CC2)cc1Nc1ncnc2cnc(N3CCCC3)nc12` [III-260], 2000 nM corresponded to half-maximal inhibition (IC50). This IC50 lies about 4-fold higher than the previous one. With `Cc1ccc(C(=O)Nc2cc(C(F)(F)F)ccn2)cc1Nc1ncnc2cnc(N3CCN(C)CC3)nc12` [III-261], the IC50 is under 1 nM. To `COc1ccc(C(F)(F)F)cc1NC(=O)c1ccc(C)c(Nc2ncnc3cnc(N4CCCCC4)nc23)c1` [III-262] belongs 9 nM; to `Cc1ccc(C(=O)Nc2cccc(N(C)C)c2)cc1Nc1ncnc2cnc(N3CCNCC3)nc12` [III-263], 15 nM.
